Results on 3 compounds are retold here after patent publication US11883430B2, “CD38-NAD+ regulated metabolic axis in anti-tumor immunotherapy” (MUSC FOUNDATION FOR RESEARCH DEVELOPMENT, priority 2016, dated 2024).

Each structure is given as a SMILES string.

Experiment [1] concerns Th1 cells. The experiment can be described thus: Seahorse oxygen consumption rate with etomoxir. The experiment is classed as cell-based, mouse. The note with it: etomoxir 200 μM (FIG. 3J). An excerpt: (§1) FIGS. 3A-3P: Hybrid Th1/17 cells are metabolically distinct from Th1 and Th17 cells and depend upon glutaminolysis. The ex vivo programmed Th1, Th17 and Th1/17 cells were used to determine: (A) Glucose uptake using 2NBDG. Adjacent bar diagram represents the cumulative data of mean fluorescence intensity (MFI) from three independent experiments. (B) ECAR time course in response to glucose, oligomycin and 2DG (left panel). […] (C) Intracellular expression of GAPDH by FACS. Adjacent bar represents cumulative data from 3 experiments. (D) Glycolysis associated genes using qPCR. Genes including Glut1, HKI, HKII, Pfkb1, Pkm2, and LdhA are lower in Th1/Th17 while Pfkb3 and Pgam 1 are higher. (E-G) Oxygen consumption rate (OCR) under basal condition and in response to indicated mitochondrial inhibitors. Graphs representing time course (E), basal OCR (F), and OCR/ECAR ratio (G). (H) Expression of CTP1a using qPCR. […] (M) Uptake of radiolabelled glutamine that was measured in count per minute (CPM). […] (P) TRP-1 Th1/17 cells differentiated either in presence of vehicle control (DMSO) or DON (3 μM) were adoptively transferred (0.5×10^6) in 9 days s.c. established B16-F10 melanoma tumor bearing mice and tumor growth was measured. […]
(§2) Oxygen consumption rate (OCR) and Extracellular acidification rate (ECAR) was determined using Seahorse Xfe96 analyser (Agilent Technologies, Santa Clara, CA). […] OCR, a measure of OXPHOS, was analysed under basal condition or in response to 200 μM Etomoxir (Sigma-Aldrich, St. Louis, MO) followed by 1.0 μM oligomycin (Sigma-Aldrich, St. Louis, MO), 1.0 μM fluoro-carbonyl cyanide phenylhydrazone (FCCP) (Sigma-Aldrich, St. Louis, MO) and 2 μM rotenone (Sigma-Aldrich, St. Louis, MO) plus 100 nM antimycin A (Sigma-Aldrich, St. Louis, MO). ECAR, a measure of glycolysis was measured under basal conditions and in response to glucose (5.5 mM), Oligomycin (1.0 μM), 2-deoxyglucose (2-DG) (100 mM) (Sigma-Aldrich, St. Louis, MO).

The subject of a further experiment is Th17 cells. The experiment can be described thus: Seahorse oxygen consumption rate with etomoxir. Type of experiment: cell-based, mouse. Conditions: etomoxir 200 μM (FIG. 3I).
Description: as §1, §2

Experiment [2] concerns Th1/17 cells. The experiment can be described thus: Seahorse oxygen consumption rate with etomoxir. The note with it: etomoxir 200 μM (FIG. 3K). The experiment is classed as cell-based, mouse.
Description: as §1, §2

For a further experiment, the system named is NAD+. The experiment can be described thus: Intracellular NAD+ level. Conditions: Th1/17 differentiated with 2DG 1 mM, DON 3 μM or FK866 10 nM (FIGS. 11K, 11L). The experiment is classed as cell-based, mouse. The procedure: NAD^+, Sirt1 activity and Foxo1 activity assay: Intracellular NAD^+ level in T cells were measured spectrophotometrically following the manufacturer's protocol (Cayman chemical, Ann Arbor, MI). Using equal amounts of nuclear protein extracted by NE-PER Nuclear and Cytoplasmic Extraction Reagents (Thermo Fisher Scientific, Waltham, MA), Sirt1 activity (Universal Sirt1 Activity Assay Kit, Abcam, Cambridge, MA) and Foxo1 activity (FKHR transcription Factor Assay Kit, Active Motif, Carlsbad, CA) were determined as per manufacturer's protocol.

Experiment [3] has as its system Th1 cells. The experiment is described as follows: Intracellular cytokine (IFNγ, IL17) flow cytometry after PMA and ionomycin. The note with it: Th1 subsets (FIGS. 12A and 12B). Type of experiment: cell-based, mouse. The procedure: FIGS. 12A-12D: Loss of Sirt1 expression and NAD+ levels on Th1/17 cell phenotype and function (see FIG. 5). (A) Purified CD4^+ T cells from C57BL/6 were used to differentiate to Th1/17 cells either alone or in the presence of Ex527, a pharmacological inhibitor of Sirt1. Cells were then restimulated with PMA and ionomycin for 4 hr in presence of golgi block to stain for intracellular accumulation of cytokines IFNγ and IL17. (B) Th1 cells were cultured either in presence or absence of NAD+ inhibitor FK866 (10 nM) and intracellular staining was performed for IFNγ and IL17. Data was acquired using FACS and analysis was carried out using FlowJo software. (C-D) Purified splenic CD4^+ T cells from either C57BL/6 WT or Sirt1fl/flCD4Cre (Sirt1KO) mouse were used to ex vivo program for Th1/17 cells. RNA was prepared and quantitative PCR analysis was performed for the expression of various glycolysis (C) and glutaminolysis (D) associated genes in either WT or Sirt1KO Th1/17 cells. Data in section A-D are representative of three independent experiments.
T cell differentiation: Naïve CD4^+ T cells were purified from the total splenocytes of 6-9 weeks old WT (C57BL/6) and KO (Foxo1^fl/flLck^cre, Sirt1^fl/flCD4^cre, CD38KO) mice using CD4^+ T cell isolation kit (Miltenyi Biotec) according to manufacturer's protocol. […]
(In flow cytometry, cells or beads pass a laser one at a time.)

The subject of experiment [4] is Th1/17 cells. The experiment can be described thus: qPCR gene expression in Th1/17 cells. The experiment is classed as cell-based, mouse. The note with it: Th1/17 differentiated with FK866 10 nM or Ex527 (FIGS. 4D, 5D). On the procedure:
Real-time quantitative-PCR: Total RNA was extracted from pellets of the indicated T cell subsets (2×10^6 cells) using Trizol reagent (Life technologies, Grand Island, NY). cDNA was generated from 1 μg total RNA using iScript cDNA Synthesis Kit (BioRad, Hercules, CA). SYBR Green incorporation quantitative real-time PCR was performed using a SYBR Green mix (Biorad, Hercules, CA) in the CFX96 Detection System (BioRad, Hercules, CA). Expression of different genes was quantified relative to Actb.
(In general: Real-time PCR tracks product formation cycle by cycle.)

The subject of experiment [5] is B16-F10-HLA-A2+ murine melanoma. The experiment is described as follows: Adoptive T cell transfer, s.c. B16-F10-HLA-A2+ melanoma, tumor growth. Conditions: Th1/17 differentiated ex vivo with FK866 or Ex527 vs untreated/vehicle (FIGS. 4E, 5F). Type of experiment: in vivo, mouse.
Experiment [6] concerns Th1/17 cells. The experiment is described as follows: Intracellular cytokine (IFNγ, IL17) flow cytometry after PMA and ionomycin. Type of experiment: cell-based, mouse. The note with it: WT T cells programmed in presence of Ex527; sentence says both Th17 and Th1/17 cells (FIG. 12A). An excerpt:
T cell differentiation: Naïve CD4^+ T cells were purified from the total splenocytes of 6-9 weeks old WT (C57BL/6) and KO (Foxo1^fl/flLck^cre, Sirt1^fl/flCD4^cre, CD38KO) mice using CD4^+ T cell isolation kit (Miltenyi Biotec) according to manufacturer's protocol. Total splenocytes from 6-9 weeks old TCR transgenic mouse TRP-1 (bears class-II restricted CD4^+ T cells) or Pmel (bears class-I restricted CD8^+ T cells) or TCR-I (bears class-I restricted CD8^+ T cells) were also used. Within experiments mice were age and sex matched. Purified naïve CD4^+ T cells or total splenocytes were differentiated to Th1 or Tc1 (10 ng/ml IL12, 50 U/ml IL2 and 10 μg/ml anti-IL4), Th17 or Tc17 (3 ng/ml TGFβ, 25 ng/ml IL6, 10 μg/ml anti-IL4 and 10 μg/ml anti-IFNγ), Th1/17 or Tc1/17 (20 ng/ml IL1β, 25 ng/ml IL6, 10 ng/ml IL12, 20 ng/ml IL23, 400 pg/ml TGFβ, 10 μg/ml anti-IL4, 5 μg/ml anti-IFNγ), iTreg (5 ng/ml TGFβ, 100 IU/ml IL2, 10 μg/ml anti-IL4 and 10 μg/ml anti-IFNγ or Th0 (50 IU/ml IL2) in presence of plate bound anti-CD3 (5 μg/ml) and anti-CD28 (5 μg/ml). For TRP-1, gp100 or Sv40 specific generation of different Th or Tc subsets, total splenocytes from either TRP-1, Pmel or TCR-I TCR transgenic mice were stimulated with 1 μg/ml respective peptides in presence of above-mentioned polarizing conditions. T cells were differentiated for three days in IMDM media supplemented with 10% FCS, 4 mM L-glutamine, 100 U/ml penicillin, 100 μg/ml streptomycin, 55 μM beta-mercaptoethanol under 7% CO2, atmospheric oxygen at 37° C. in a humidified incubator. For evaluation of intracellular cytokines by flow cytometry, T cells were re-stimulated with PMA (500 ng/ml) and Ionomycin (500 ng/ml) for 4 hr in presence of Glogi inhibitors. […]
Flow cytometry: Staining for cell surface markers was performed by incubating cells with antibody at 1:200 dilutions in FACS buffer (0.1% BSA in PBS) for 30 min at 4° C. […] Samples were acquired on LSRFortessa and analysed with FlowJo software (Tree Star, OR).

`CCOC(=O)[C@@]1(CCCCCCOc2ccc(Cl)cc2)CO1` [etomoxir]: the OXPHOS entry with Th1 cells [1] and in the experiment on Th1/17 cells [2] was “mostly unaffected” each time. Moreover, the “OCR and SRC values” in the experiment with Th17 cells was “significantly depleted OCR and SRC values”.
Consider `O=CC[C@@H](O)[C@H](O)[C@H](O)CO` [2DG, 2-Deoxy-D-glucose], for which the “NAD+ levels in Th1/17 cells” value with NAD+ is reported as “increased the NAD^+ level in Th1/17 cells”.
Turning to `NC(=O)C1CCCc2c1[nH]c1ccc(Cl)cc21` (centres unmarked) [Ex527], in the experiment with Th1 cells [3], the IFNγ secreting fraction entry is recorded as “No significant difference”. Moreover, the “expression of stemness-associated genes” value in the experiment on Th1/17 cells [4] was “markedly reduced”. Moreover, the “tumor control by inhibitor-treated Th1/17 cells upon adoptive transfer” value in experiment [5] is on record as “reduced ability to control tumor growth as compared to the vehicle treated cells”. For the same compound, the “frequency of IL17+ population” value in the experiment with Th1/17 cells [6] is recorded as “decreased frequency of IL17^+ population”.
